Data set [1] in a line: Tryptophan fluorescence in HEPES buffer. The conditions noted are these: peptide 2 μM, excitation 280 nm. The data set is classed as physicochemical. The text has this:
(§1) Upon peptide diffusion into the cytoplasmic membrane, evidence of selective interaction between peptides with bacterial versus mammalian cytoplasmic membrane was illustrated by the binding events of the peptides to anionic or zwitterionic lipid vesicles. The repositioning of the tryptophan indole group in an environment of reduced polarity upon membrane binding results in a blue shift in the fluorescence excitation maximum coupled with an enhancement of emission intensity. Lipid/peptide (L/P) ratios were maintained high enough at low peptide concentration (2 μM) in order to mimic the initial steps of peptide-membrane binding. The spectra were recorded as shown in Supplementary Figure S1. […] The significant blue shifts of Δλmax (17 to 23 nm) for all peptides upon exposure to PC/PG vesicles indicated a membrane partition state of Trp in negatively charged vesicles containing 30% anionic lipids (PG).
(§2) Fluorescence emission spectra of peptide Trp residues were monitored by a Shimadzu RF-5301 spectrofluorometer. The excitation of wavelength was set as 280 nm and the emission spectra of each peptide, with or without lipid vesicles, were recorded between 300 and 450 nm. Thus three curves were recorded for each peptide, in HEPES buffer or with either PC/PG vesicles or PC/cholesterol vesicles. The blue shift of Trp residues in vesicles were referred to in buffer condition. The final concentrations of peptide and lipid were 2 μM and 100 μM (1/50), respectively.

Another data set relates to E. coli DH5α. Briefly: MIC by broth dilution. The data set is classed as cell-based. As to conditions: MH broth, 5 × 10^5 CFU/mL, 24 h at 37 °C. How it is done: (§3) Minimal inhibitory concentrations (MIC) were determined using a broth dilution method. Briefly, bacteria were grown overnight at 37 °C in Mueller–Hinton (MH) Broth, diluted in the same medium and transferred into 96-well microtiter plates (90 μL/well). Peptides were serially diluted using 0.2% bovine serum albumin containing 0.01% acetic acid and added to the microtiter plates in a volume of 10 μL per well to give a final concentration of 5 × 10^5 CFU/mL. MICs were defined as the lowest peptide concentration that inhibited bacterial growth after incubation for 24 h at 37 °C.
Background: In broth dilution the organism is exposed to a series of concentrations in liquid medium.

The next data set relates to E. coli Clinical Isolate. Format: cell-based. As to the method: as §3
A further data set concerns P. aeruginosa H188. The data set is classed as cell-based. As to the method: as §3
In another data set the test system is P. aeruginosa ATCC27853. The data set is classed as cell-based. As to the method:
as §3

A further data set has as its system E. coli ATCC25922. The data set is classed as cell-based. As to the method:
as §3

Data set [2] can be described thus: CD spectroscopy, helicity in benign buffer and in 50% TFE. The data set is classed as physicochemical. The conditions noted are these: for [θ]222, mean residue molar ellipticity, benign / [θ]222, mean residue molar ellipticity, 50% TFE: CD at 222 nm, peptide 75 μM; for [θ]222, mean residue molar ellipticity, benign / [θ]222, mean residue molar ellipticity, 50% TFE / % helix, 50% TFE: 25 °C; for [θ]222, mean residue molar ellipticity, benign: KP buffer (100 mM KCl, 50 mM K2HPO4/KH2PO4, pH 7.0); for [θ]222, mean residue molar ellipticity, 50% TFE / % helix, 50% TFE: KP buffer diluted 1:1 (v/v) with TFE; for % helix, 50% TFE / % helix, benign: relative to the molar ellipticity of peptide V16E in 50% TFE; for % helix, benign: KP buffer pH 7.0, 25 °C. How it is done: The secondary structures of peptides were determined in benign buffer and in a hydrophobic environment (50% trifluoroethanol, TFE) to mimic the hydrophobic environment of the membrane. […] The principle of side chain interaction at the i to i + 3 and i to i + 4 positions has been used to promote α-helix stability, for example, the incorporation of Lys and Glu residues to stabilize electrostatic attractions. Thus, the helicity of peptide V16E in the presence of 50% TFE that presented the greatest value among all analogs should rely on the contribution of the electrostatic attraction of the side chain of K13 and E16, which stabilizes the helix. The relative helicity is 100% for peptide V16E in 50% TFE, showing the importance of the salt bridges of K13 and E16 to stabilize the helical structure. In general, subtle side-chain alterations by single amino acid substitutions made no significant changes on secondary structures both in aqueous and in hydrophobic environments (Table 2).
Circular dichroism spectra were measured with a 0.02 cm path length quartz cuvette on a Jasco J-810 spectropolarimeter (Jasco, Tokyo, Japan) at 25 °C. Data were collected from 250 to 190 nm at a sensitivity of 100 millidegrees, response time of 1 s, bandwidth of 1.0 nm and a scan speed of 100 nm/min. Peptides were measured at a concentration of 75 μM in a benign buffer (50 mM KH2PO4/K2HPO4, 100 mM KCl, pH 7) or the benign buffer mixed with 50% 2,2,2-trifluoroethanol (TFE). The mean residue molar ellipticities were calculated using the equation [θ] = θ/10lcMn, where θ is the ellipticity in millidegrees, l is the optical path length of the cuvette in centimeters, cM is the peptide concentration in mole/liter and n is the number of residues in the peptide.

A short description of data set [3]: Tryptophan fluorescence, binding to lipid vesicles. As to conditions: for Tryptophan fluorescence emission maximum: excitation 280 nm. How it is done:
as §1, with “The repositioning of the tryptophan indole group in an environment of reduced polarity upon membrane binding results in a blue shift in the fluorescence excitation maximum coupled with an enhancement of emission intensity.” left out
Unilamellar vesicles were prepared by a standard procedure with either PC/PG (7:3, w/w) or PC/cholesterol (8:1, w/w) as described previously. Briefly, the desired mixtures of lipids were dissolved in a chloroform/methanol mixture (2:1, v/v), dried under nitrogen and then lyophilized for 24 h to remove traces of organic solvent. Dry lipid films were suspended in 10 mM HEPES buffer containing 150 mM NaCl (pH 7.4) by vortex mixing. After five freeze-thawing cycles, the suspension was extruded 15 times through double polycarbonate membranes with 0.1 μm diameter pores on an Avanti mini-extruder apparatus. The lipid concentration was determined by phosphorus analysis as previously reported.
as §2

Where [4] appears, read: PC/PG (7:3, w/w) vesicles versus HEPES buffer, lipid:peptide 50:1, peptide 2 μM.
Setting [5] is: PC/PG (7:3, w/w) vesicles, lipid and peptide in a molar ratio of 50:1, peptide 2 μM, lipid 100 μM.
The mark [6] stands for this setting: PC/cholesterol (8:1, w/w) vesicles versus HEPES buffer, peptide 2 μM, lipid 100 μM.
The mark [7] stands for this setting: PC/cholesterol (8:1, w/w) vesicles, peptide 2 μM, lipid 100 μM.

In brackets after ≈: the same amount, converted by molar mass. Read-outs that look alike come from different tables or passages of the source.

One may read the MIC as the smallest concentration in the dilution series that meets the test's criterion for growth inhibition. A lower MIC goes with inhibition by little substance. For `CC[C@H](C)[C@H](NC(=O)[C@H](C)NC(=O)[C@H](CCCCN)NC(=O)[C@H](CC(C)C)NC(=O)[C@H](C)NC(=O)[C@@H](NC(=O)[C@H](Cc1cnc[nH]1)NC(=O)[C@H](CC(C)C)NC(=O)[C@@H](NC(=O)[C@@H](NC(=O)[C@H](CCCCN)NC(=O)[C@H](CCCCN)NC(=O)[C@H](C)NC(=O)[C@H](CO)NC(=O)[C@H](CCCCN)NC(=O)[C@H](Cc1ccccc1)NC(=O)[C@@H](NC(=O)[C@H](CCCCN)NC(=O)[C@H](CC(C)C)NC(=O)[C@H](Cc1ccccc1)NC(=O)[C@H](CO)NC(=O)[C@H](CCCCN)NC(=O)[C@H](Cc1c[nH]c2ccccc12)NC(=O)[C@H](CCCCN)NC(C)=O)[C@@H](C)O)[C@@H](C)O)C(C)C)[C@@H](C)O)C(=O)N[C@@H](CO)C(=O)N[C@@H](CO)C(N)=O` [P], the entries for the “Tryptophan fluorescence emission maximum” value in data set [1], in data set [3] (setting [5]) and in data set [3] (setting [7]) were 350 nm, 328 nm and 349 nm, respectively. Moreover, the MIC with E. coli DH5α was 2 µg/mL (≈ 0.669 µM); in the data set with E. coli Clinical Isolate (E. coli Clinical Isolate, MH broth, 5 × 10^5 CFU/mL, 24 h at 37 °C), 1 µg/mL (≈ 0.334 µM); against P. aeruginosa H188 (P. aeruginosa H188, MH broth, 5 × 10^5 CFU/mL, 24 h at 37 °C), 4 µg/mL (≈ 1.34 µM); against P. aeruginosa ATCC27853 (P. aeruginosa ATCC27853, MH broth, 5 × 10^5 CFU/mL, 24 h at 37 °C) it was 4 µg/mL (≈ 1.34 µM); with E. coli ATCC25922 (E. coli ATCC25922, MH broth, 5 × 10^5 CFU/mL, 24 h at 37 °C) it was 1 µg/mL (≈ 0.334 µM). Further, the “[θ]222, mean residue molar ellipticity, benign” value in data set [2] is given as −2,592 degree·cm^2·dmol^−^1. Further, the “[θ]222, mean residue molar ellipticity, 50% TFE” value in data set [2] is −29,726 degree·cm^2·dmol^−^1. The “% helix, 50% TFE” value in data set [2] was 98.9%. Besides, in data set [2], the “% helix, benign” value was 8.6%. Further, the entries for the “Blue shift in emission maximum” value in data set [3] (setting [4]) and in data set [3] (setting [6]) were 22 nm and 1 nm, respectively.

“Ac-KWKSFLKTFKSAKKTKLHTALKAISS-NH2 [Peptide V16K]”: the “Tryptophan fluorescence emission maximum” value in data set [1] came to 350 nm; in data set [3] (setting [5]), 329 nm; in data set [3] (setting [7]) it was 349 nm. Moreover, the MIC in the data set with E. coli DH5α turned out to be 16 µg/mL; against E. coli Clinical Isolate (Clinical Isolate, 24 h) it was 8 µg/mL; against P. aeruginosa H188 (H188, 24 h) it was 16 µg/mL; in the data set with P. aeruginosa ATCC27853 (ATCC27853, 24 h), 32 µg/mL; in the data set with E. coli ATCC25922 (ATCC25922, 24 h) it was 32 µg/mL. In addition, the “[θ]222, mean residue molar ellipticity, benign” value in data set [2] is on record as −1,990 degree·cm^2·dmol^−^1. Also, the “[θ]222, mean residue molar ellipticity, 50% TFE” value in data set [2] is recorded as −29,313 degree·cm^2·dmol^−^1. Further, in data set [2], the “% helix, 50% TFE” value was 97.5%. Besides, the “% helix, benign” value in data set [2] turned out to be 6.6%. Further, the “Blue shift in emission maximum” value in data set [3] (setting [4]) is 21 nm; in data set [3] (setting [6]), 1 nm.
